Data as given in patent publication US11103520B2, “Analogs of N-acetlyglucosamine and uses thereof” (THE REGENTS OF THE UNIVERSITY OF CALIFORNIA, priority 2014, dated 2021).
Entries after “also recorded” stand apart in the source; their conditions may differ.

Tests used:
[1] = system: myelin-reactive T cells; conditions: T cells treated in vitro, transferred into naïve mice; cited from earlier work
[2] = system: human T cells; assay: N-glycan branching (L-PHA) in human T cells; format: cell-based; conditions: PMA/Ionomycin stimulation, FIG. 9 and FIG. 10
From the text: Relative L-PHA (%) in human T cells is plotted as a function of PMA/Ionomycin stimulation and GlcNAc/GlcNAc-diacetate concentrations.
Relative L-PHA (%) in human T cells is plotted as a function of PMA/Ionomycin stimulation and GlcNAc/GlcNAc-monoacetate concentrations.

[3] = cited from earlier work
[4] = system: peripheral blood mononuclear cells; conditions: induced by MS-associated MGAT1 variant; cited from earlier work
[5] = system: animals; conditions: in vivo; cited from earlier work
[6] = system: N-glycan branching; conditions: in vitro; cited from earlier work
[7] = system: C57BL/6 mice; assay: EAE in C57BL/6 mice, oral GlcNAc after disease onset; format: in vivo, mouse
Procedure: FIG. 7A is a graph that plots mean clinical EAE score as a function of days after disease onset for control and treated groups of mice. […] Error bars in FIGS. 7A and 7D represent the means±S.E. of duplicate or greater values unless otherwise stated.
The data plotted in FIG. 7A was obtained from experiments in which EAE was induced in C57BL/6 mice by immunization with MOG 35-55 peptide emulsified in Complete Freund's adjuvant and pertussis toxin. GlcNAc mice were treated orally with GlcNAc by supplementing the drinking water at 0.25 mg/ml starting on the second day after disease onset and continued for the duration of the study and control mice were given drinking water not supplemented with GlcNAc (n=9 per control group, n=7 per GlcNAc group). Day 1 indicates the first day of disease onset. Mice were examined daily for clinical signs of EAE over the next 30 days with the observer blinded to treatment conditions and scored daily as follows: 0, no disease; 1, loss of tail tone; 2, hindlimb weakness; 3, hindlimb paralysis; 4, forelimb weakness or paralysis and hindlimb paralysis; 5, moribund or dead. Mean clinical scores per group daily were compared by the Mann-Whitney U test. […] Error bars in FIGS. 7A and 7D represent the means±S.E. of duplicate or greater values unless otherwise stated.

[8] = system: non-obese diabetic mice; conditions: oral, initiated prior to disease onset; cited from earlier work
[9] = system: human T cells; assay: CD25 and CD69 expression in human T cells stimulated with α-CD3; format: cell-based; conditions: FIG. 11
From the text: FIG. 12A is a graph that plots CD25 expression (%) in human T cells as a function of α-CD3 and GlcNAc/GlcNAc 6-acetate concentrations. FIG. 12B is a graph that plots CD69 expression (%) in human T cells as a function of α-CD3 and GlcNAc/GlcNAc 6-acetate concentrations.

[10] = system: humans; conditions: supplement use for many years; cited from earlier work
[11] = system: 2D2 TCR transgenic mice; assay: EAE in 2D2 TCR transgenic mice, oral GlcNAc after disease onset; format: in vivo, mouse; conditions: oral 0.25 mg/ml after onset
From the text: Day 1 indicates the first day of disease onset. […] Mean clinical scores per group daily were compared by the Mann-Whitney U test.

[12] = system: mice immunized with MOG 35-55 peptide; assay: Oral GlcNAc in mice immunized with MOG 35-55 peptide, splenocytes re-stimulated in culture; format: in vivo, mouse
Procedure: The data plotted in FIG. 6A was obtained from experiments in which splenocytes were isolated from mice and cultured in vitro with the indicated concentrations of GlcNAc under resting or activated (1000 ng/ml anti-CD3) conditions for 3 days, stained with L-PHA-FITC in triplicate, and analyzed by FACS. The data plotted in FIGS. 6B-6E were obtained from experiments in which mice were immunized with the indicated amounts of MOG 35-55 peptide emulsified in Complete Freund's adjuvant and treated with GlcNAc at the same time by supplementing their drinking water at 0.25 mg/ml GlcNAc and control mice that were immunized with the indicated amounts of MOG 35-55 peptide but not treated with GlcNAc. […] Although not wishing to be bound by any particular theory, the reduction in CD25^+T cell blasts at the highest antigen concentrations is consistent with the explanation that the reduction is secondary to the observed increase in cell death, consistent with antigen-induced cell death at high antigen stimulation levels.

[13] = system: pediatric treatment-resistant inflammatory bowel disease patients; conditions: oral GlcNAc; remission for approximately 2 years; cited from earlier work
[14] = system: C57/BL6 mice immunized with MOG35-55 peptide; assay: Oral treatment, N-glycan branching in mouse T cells in vivo; conditions: 1 mg/mL in drinking water, five days post immunization, CD4+ blasts
Procedure: Ten-week old female C57/BL6 were immunized with 100 μg of MOG35-55 peptide in a 1:1 mixture with CFA. Groups were non-immunized (n=2), immunized and given drinking water alone (n=3), immunized and given GlcNAc at 1 mg/mL in drinking water (n=3), or immunized and given G-6-A at 1 mg/mL in drinking water (n=3). Splenocytes were harvested five days post immunization, and labeled for FACS analysis. For GlcNAc and G-6-A treated groups, each mouse drank an average of 3 mL per day. Data shown is gated on a blasting region on CD4^+ cells.

[15] = system: mouse T cells; assay: Mouse splenocyte cultures (L-PHA, CD69, CFSE proliferation); format: cell-based; conditions: splenocytes, anti-CD3 1 μg/mL; FIG. 15
Procedure: FIG. 15A is a graph illustrating splenocytes from C57/BL6 female (n=6, 8-24 weeks old) or male (n=5, 10-13 weeks old) mice after culturing in the presence of anti-CD3 (1 μg/mL). Cells were collected on day 3, and labeled for FACS analysis. FIG. 15B is a series of graphs illustrating in vitro cultures of splenocytes either un-stimulated (resting) or anti-CD3 (1 μg/mL) activated. G-6-A (20 mM) and or GlcNAc (40 mM). Cells were harvested over a three-day time course, and labeled for FACS analysis. FIG. 15C is a graph illustrating in vitro stimulated splenocytes (anti-CD3 at 1 μg/mL) that were cultured for three-days and labeled for FACS analysis of the T cell activation marker CD69 at the time points indicated. […] Splenocytes were labeled with 1 uM of CFSE prior to in vitro anti-CD3 (1 μg/mL) activation for three-days. Overlaying histograms is on gated CD4+ cells.
Cells were collected on day 3, and labeled for FACS analysis. Data shown is on gated CD4^+ cells, and percent changes of L-PHA MFI were normalized to a media only control.
G-6-A (20 mM) and or GlcNAc (40 mM). Cells were harvested over a three-day time course, and labeled for FACS analysis. Data shown is on gated CD4^+ cells, and percent changes of L-PHA MFI were normalized to a media only control.
Data shown is on gated CD4^+ cells. […]

[16] = oral, 0.25 mg/ml in drinking water, 14 days, vs control mice

## CC(=O)N[C@@H](C=O)[C@@H](O)[C@H](O)[C@H](O)CO [GlcNAc, 2-(acetylamino)-2-deoxy-D-glucose]
[1]
  EAE after adoptive transfer of treated T cells: inhibited EAE when these cells were adoptively transferred into naïve mice
[2]
  N-glycan branching (Relative L-PHA (%)): increases N-glycan branching to greater effect than N-acetylglucosamine-diacetate compounds; also recorded: N-acetylglucosamine 6-acetate increases N-glycan branching to greater effect than GlcNAc
[3]
  membrane permeability: low membrane permeability (poor cell entry)
[4]
  N-glycan branching deficiency and T cell hyper-proliferation: rescued N-glycan branching deficiency and T cell hyper-proliferation
[5]
  toxicity in chronic animal studies: no associated toxicity
[6]
  N-glycan branching with increasing concentration: only enhance N-glycan branching
[7]; C57BL/6 mice, oral 0.25 mg/ml in drinking water from second day after onset
  clinical course of EAE (mean clinical score): attenuates the clinical course of experimental autoimmune encephalomyelitis (EAE)
[7]; re-stimulation with MOG 35-55 peptide in vitro
  production of pro-inflammatory cytokines IFN-γ, TNF-α, IL-17, IL-22: inhibited production of pro-inflammatory cytokines IFN-γ, TNF-α, IL-17, and IL-22
[7]; representative mice at peak of disease
  N-glycan branching in T cells (L-PHA staining): increased N-glycan branching in T cells
[7]; representative mice at peak of disease, vs control mice
  CD25+ T cells: significant reduction in CD25^+T cells
[8]
  spontaneous autoimmune diabetes: suppress spontaneous autoimmune diabetes
[9]
  CD25 expression (%): N-acetylglucosamine 6-acetate inhibits CD25 and CD69 expression to greater effect than GlcNAc
  CD69 expression (%): N-acetylglucosamine 6-acetate inhibits CD25 and CD69 expression to greater effect than GlcNAc
[10]
  adverse effects in humans: without reported adverse effects
[11]; 2D2 TCR transgenic mice scored ≤4
  clinical course of EAE, moderate-severe disease: attenuates the clinical course of EAE in moderate-severe disease
[11]; 2D2 TCR transgenic mice with scores of 5
  clinical course of EAE, lethal disease: not disease with rapid lethal progression
[12]; oral treatment in vivo, re-stimulation with MOG 35-55 in vitro
  secretion of Th1 (IFN-γ, TNF-α) and Th17 (IL-17, IL-22) cytokines: inhibited secretion of Th1 cytokines (IFN-γ and TNF-α) and Th17 cytokines (IL-17 and IL-22)
[12]; [16]
  CD4+CD25+FoxP3+ regulatory T cells: promoted development of CD4^+CD25^+FoxP3^+ regulatory T cells
  CD25+ T cells upon re-stimulation with MOG 35-55 peptide: reduced CD25^+T cells
[13]
  children in clinical remission: 8 of 12

## CC(=O)N[C@H]1C(OC(C)=O)O[C@H](COC(C)=O)[C@@H](OC(C)=O)[C@@H]1OC(C)=O (stereo partly shown) [GlcNAc-tetraacetate, N-acetylglucosamine tetraacetate]
[3]
  membrane permeability: increased membrane permeability as compared with GlcNAc

## CC(=O)N[C@H]1C(O)O[C@H](CO)[C@@H](OC(C)=O)[C@@H]1OC(C)=O (stereo partly shown) [N-acetylglucosamine 3,4 diacetate]
[2]
  N-glycan branching (Relative L-PHA (%)): GlcNAc increases N-glycan branching to greater effect than N-acetylglucosamine-diacetate compounds

## CC(=O)N[C@H]1C(O)O[C@H](COC(C)=O)[C@@H](O)[C@@H]1OC(C)=O (stereo partly shown) [N-acetylglucosamine 3,6 diacetate]
[2]
  N-glycan branching (Relative L-PHA (%)): GlcNAc increases N-glycan branching to greater effect than N-acetylglucosamine-diacetate compounds

## CC(=O)N[C@H]1C(O)O[C@H](CO)[C@@H](O)[C@@H]1OC(C)=O (stereo partly shown) [N-acetylglucosamine 3-acetate]
[2]
  N-glycan branching (Relative L-PHA (%)): N-acetylglucosamine 6-acetate increases N-glycan branching to greater effect than GlcNAc or N-acetylglucosamine 3-acetate

## CC(=O)N[C@H]1C(O)O[C@H](COC(C)=O)[C@@H](OC(C)=O)[C@@H]1O (stereo partly shown) [N-acetylglucosamine 4,6 diacetate]
[2]
  N-glycan branching (Relative L-PHA (%)): GlcNAc increases N-glycan branching to greater effect than N-acetylglucosamine-diacetate compounds

## CC(=O)N[C@H]1C(O)O[C@H](COC(C)=O)[C@@H](O)[C@@H]1O (stereo partly shown) [N-acetylglucosamine 6-acetate]
[2]
  N-glycan branching (Relative L-PHA (%)): increases N-glycan branching to greater effect than GlcNAc or N-acetylglucosamine 3-acetate
[14]
  N-glycan branching in mouse T cells in vivo: increases N-glycan branching in mouse T cells in vivo
[15]
  effectiveness in mouse T cells: more effective than GlcNAc in mouse T cells
[9]
  CD25 expression (%): inhibits CD25 and CD69 expression to greater effect than GlcNAc
  CD69 expression (%): inhibits CD25 and CD69 expression to greater effect than GlcNAc

## N[C@H]1C(O)O[C@H](CO)[C@@H](O)[C@@H]1O (stereo partly shown) [glucosamine]
[6]
  N-glycan branching with increasing concentration: initially increasing but subsequently decreasing N-glycan branching
